Experimental data published in US12357641B2, “Identification of oleanolic acid and plant extract for glucose-6-phosphate dehydrogenase-related disorders including Bag3opathy” (Hong Kong Baptist University, priority 2022, dated 2025).

Legend:
[1] = system: G6PD; experiment: Oleanolic acid treatment in normal mice: G6PD protein by ELISA in serum, heart muscle and skeletal muscle; type: in vivo, mouse; details: for G6PD protein in heart muscle: control 0.36±0.26 ng/mg; for G6PD protein level in serum: control 1.79±0.99 ng/mL
Procedure: BAG3 P209-KI mice were reproduced by mating between the P209L/+ male and female mice. All mice were maintained with free access to food and water in plastic cages at 22±2° C. and kept on a 12-h light/dark cycle. Animal welfare and experimental procedures were carried out in accordance with the related ethical regulations of Yunnan Minzu University. […] Heart muscle and skeletal muscle samples were obtained after cardiac perfusion with cold PBS. Muscle tissues were lysed into homogenate in ice-cold lysis buffer (150 mM NaCl, 50 mM Tris, pH7.5, 1% NP-40, 0.1% sodium deoxycholate) plus 1 mM PMSF. Samples were then sonicated on ice and centrifuged at 10,000 g for 5 min. The concentration of G6PD in serum, heart muscle, and skeletal muscle were determined by G6PD Elisa Kit (Catalog #: SEA716Mu, Cloud-Clone Corp. USA) following the manufacturer's instruction. The plate was read at 450 nm by the microplate reader (iMark, Biorad, USA). The concentration of the total protein from tissue samples was determined by the spectrophotometer (NanoDrop One, Thermo Scientific, USA).
Seventeen normal male C57BL/6 mice, 6-8 weeks of age, were purchased from Hunan SJA Laboratory Animal Co., Ltd (Changsha, China). They were maintained with free access to food and water in plastic cages at 22±2° C. and kept on a 12-h light/dark cycle. Animal welfare and experimental procedures were carried out in accordance with the related ethical regulations of Yunnan Minzu University. Mice were randomly divided into one control group (n=6) and two dug treatment groups (n=5, 6). Oleanolic acid was suspended in 0.5% carboxymethylcellulose sodium (CMC-Na) solution with the concentration of 10 and 2.5 mg/mL. In the control and drug treatment groups, 0.5% CMC-Na and oleanolic acid (50, 200 mg/kg/day) was given orally for 10 days, respectively. On the 11th day, mice were sacrificed, and the serum and tissue samples were prepared and detected as the method described previously.

[2] = system: G6PD; experiment: Oleanolic acid treatment in Bag3opathy patient: serum G6PD protein by ELISA; type: in vivo, human; details: oral capsules 180 mg/day for three months, before treatment 0.09 ng/mL, normal girls 7.25±9.38 ng/mL
Procedure: The concentration of G6P in serum was determined by High Sensitivity G6P Assay Kit (Catalog #: K687-100, BioVision, Inc. USA) following the manufacturer's instruction. Briefly, a volume of 200 μL of samples was deproteinized with 10 kDa MWCO spin filter prior to the reaction. After adding 50 μL of the appropriate reaction mix into each 50 μL of filtrate, the reaction was incubated for 5 min at 37° C. and protected from light. Finally, the concentration of G6P was calculated according the fluorescence intensity (λex=535/λem=587) measured by fluorometer (EnVision 2104 Multilabel Reader, PerkinElmer, USA). The serum levels of G6PD (SEA716Hu, Cloud-Clone Corp), GPI, catalase (CAT), thioredoxin (TXN), and superoxide dismutase 1 (SOD1) were measured by Elisa Kits purchased from Cloud-Clone Crop Inc. (USA). Serum samples were diluted 100 folds in PBS for measurements of CAT and TXN, and were diluted 800 folds for SOD1 test. The activity of PGM was determined by Colorimetric Assay Kit from BioVision (Inc. USA). Samples were prepared and measured at 450 nm by Elisa reader (Benchmark Plus, BioRad, USA) depending on the manufacturer's instructions.
The Bag3opathy patient (body weight of patient: 40 kg) was orally administrated with Chinese medicine supplements containing oleanolic acid (180 mg per day) to evaluate the effects of treatment on BAG3 associated MFM for 3 months. […]

[3] = system: creatine kinase-MB (CK-MB); experiment: Oleanolic acid treatment in Bag3opathy patient: creatine kinase-MB (cardiac marker) in blood; type: in vivo, human; details: oral capsules 180 mg/day for three months, before treatment 24 U/L
Procedure: The Bag3opathy patient (body weight of patient: 40 kg) was orally administrated with Chinese medicine supplements containing oleanolic acid (180 mg per day) to evaluate the effects of treatment on BAG3 associated MFM for 3 months. 3 mL serum was collected for analysis before and after the treatment. The trial was approved the Ethics Committee of Hong Kong Baptist University (HASC/15-16/0268) according to the principles of the Declaration of Helsinki, and obtained the consent form.

## CC1(C)CC[C@]2(C(=O)O)CC[C@]3(C)C(=CC[C@@H]4[C@@]5(C)CC[C@H](O)C(C)(C)[C@@H]5CC[C@]43C)[C@@H]2C1 [oleanolic acid, Oleanolic acid]
[1]; oral 50 mg/kg daily for ten days, control 0.11±0.04 ng/mg, p=0.035
  G6PD protein in skeletal muscle: 0.19 ± 0.04 ng/mg
[1]; oral 50 mg/kg daily for ten days, p=0.36
  G6PD protein in heart muscle: 0.54 ± 0.32 ng/mg
[1]; oral 50 mg/kg daily for ten days, p=0.140
  G6PD protein level in serum: 3.74 ± 1.91 ng/mL
[1]; oral 200 mg/kg daily for ten days, p=0.011
  G6PD protein in heart muscle: 0.93 ± 0.43 ng/mg
[1]; oral 200 mg/kg daily for ten days, p=0.049
  G6PD protein level in serum: 4.47 ± 3.07 ng/mL
[2]
  serum G6PD protein after treatment: 2.43 ng/mL
[3]
  creatine kinase-MB (CK-MB) after treatment: 16 U/L
